Results published in article PMC11252457 (Acta Pharmaceutica Sinica. B, 2024).
Values joined by “and” are separate entries in the source; they are usually repeats but may differ in a detail not shown here. Identical values can stand only once. Like-named read-outs stand apart in the source and are kept apart here.

What was measured:
WT HIV-1 (IIIB) = assay: microbe, parasite or virus in culture; assay type: cell-based; conditions: for EC50: Human immunodeficiency virus 1, IIIB, MT4, read-out: EC50 IIIB; for SI IIIB: ratio of CC50/EC50, IIIB
[1] = system: HIV-1 mutant strain E138K; assay: microbe, parasite or virus in culture; assay type: cell-based; conditions: for EC50: Human immunodeficiency virus 1, MT4, read-out: EC50 E138K
[2] = system: HIV-1 mutant strain Y188L; assay: microbe, parasite or virus in culture; assay type: cell-based; conditions: for EC50: Human immunodeficiency virus 1, MT4, read-out: EC50 Y188L
[3] = cited from earlier work
[4] = system: HIV-1 double mutant strain F227L/V106A; assay: microbe, parasite or virus in culture; assay type: cell-based; conditions: for EC50: Human immunodeficiency virus 1, MT4, read-out: EC50 F227L/V106A
[5] = system: HIV-1 mutant strain Y181C; assay: microbe, parasite or virus in culture; assay type: cell-based; conditions: for EC50: Human immunodeficiency virus 1, MT4, read-out: EC50 Y181C
[6] = Cytotoxicity in mock-infected MT-4 cells; conditions: human
[7] = system: HIV-1 mutant strain K103N; assay: microbe, parasite or virus in culture; assay type: cell-based; conditions: for EC50: Human immunodeficiency virus 1, MT4, read-out: EC50 K103N
[8] = system: HIV-1 RES056 (K103N/Y181C); assay: microbe, parasite or virus in culture; assay type: cell-based; conditions: for EC50: Human immunodeficiency virus 1, MT4, read-out: EC50 RES056; for SI RES056: ratio of CC50/EC50, RES056
[9] = system: HIV-1 mutant strain L100I; assay: microbe, parasite or virus in culture; assay type: cell-based; conditions: Human immunodeficiency virus 1, MT4, read-out: EC50 L100I
recombinant WT HIV-1 RT = recombinant WT HIV-1 RT (Human immunodeficiency virus type 1 group M subtype B, UniProt P03366); assay: HIV-1 RT inhibition assay; assay type: biochemical
Aqueous solubility = assay type: physicochemical

Row | SMILES | EC50 (WT HIV-1 (IIIB)) [nM] | EC50 [1] [nM] | EC50 [2] [nM] | EC50 [4] [nM] | EC50 [5] [nM] | CC50 at 5 days [6] [nM] | EC50 [7] [nM] | EC50 [8] [nM] | EC50 [9] [nM] | IC50 (recombinant WT HIV-1 RT) [nM] | SI IIIB (WT HIV-1 (IIIB)) | SI RES056 [8] | other results
1 | Cc1cc(C#N)cc(C)c1Oc1nc(Nc2ccc(C#N)cc2)nc(N)c1Br [ETR, etravirine, reference compound] | 2.81 ± 1.08 | 10.5 ± 2.49 | 22.1 ± 6.33 | 18.2 ± 12.4 | 17.8 ± 5.74 | > 4590 | 3.04 ± 0.9 | 83.3 ± 21.1 | 8.39 ± 3.4 |  |  |  | Aqueous solubility ([3]; pH = 2.0): 127 µg/mL; Aqueous solubility ([3]; pH = 7.0): <<1 μg/mL; Aqueous solubility ([3]; pH = 7.4): <1 µg/mL
2 | COP(=O)(OC)c1ccc(CN2CCC(Nc3nc(Oc4c(C)cc(C#N)cc4C)c4sccc4n3)CC2)cc1 [9b, Dimethyl (4-((4-((4-(4-cyano-2,6-dimethylphenoxy)thieno[3,2-d]pyrimidin-2-yl)amino)piperidin-1-yl)methyl)phenyl)phosphonate] | 3.63 ± 1.15 | 14.9 ± 8.6 | 9.95 ± 5.61 | 8.14 ± 1.85 | 15.3 ± 10.1 | 54500 ± 1290 | 3.72 ± 1.27 | 193 ± 40.4 | 10.8 ± 3.42 | 350 ± 50 | 15,014 | 282 | 
3 | Cc1cc(C#N)cc(C)c1Oc1nc(NC2CCN(Cc3ccc(P(C)(C)=O)cc3)CC2)nc2ccsc12 [9a, 4-((2-((1-(4-(Dimethylphosphoryl)benzyl)piperidin-4-yl)amino)thieno[3,2-d]pyrimidin-4-yl)oxy)-3,5-dimethylbenzonitrile] | 2.2 ± 0.33 | 7.33 ± 1.36 | 11.3 ± 0.87 | 21.5 ± 13.5 | 12.8 ± 2.62 | 215000 ± 1170 | 2.66 ± 0.85 | 257 ± 95.2 | 7.01 ± 1.76 | 310 ± 10 | 97,727 | 837 | 
4 | Cc1cc(/C=C/C#N)cc(C)c1Oc1nc(NC2CCN(Cc3ccc(P(C)(C)=O)cc3)CC2)nc2ccsc12 [15a, (E)-3-(4-((2-((1-(4-(Dimethylphosphoryl)benzyl)piperidin-4-yl)amino)thieno[3,2-d]pyrimidin-4-yl)oxy)-3,5-dimethylphenyl)acrylonitrile] | 1.75 ± 0.64 | 4.28 ± 1.04 | 7.96 ± 3.89 | 3.76 ± 0.46 | 5.38 ± 1.61 | 117000 ± 23900 | 1.27 ± 0.68 | 15.8 ± 2.62 | 2.84 ± 0.09 | 340 ± 90 |  |  | Fold more effective than ETR, WT (WT HIV-1 (IIIB)): 1.6 fold; Fold more effective than ETR, E138K [1]: ~2.45 fold; Fold higher activity than RPV, Y188L [2]: about 9.97 fold; Fold more effective than ETR, Y188L [2]: ~2.78 fold; Fold higher activity than RPV, F227L/V106A [4]: ~21.7 fold; Fold more effective than ETR, F227L/V106A [4]: 4.8 fold and ~4.84 fold; Fold more effective than ETR, Y181C [5]: 3.3 fold and ~3.31 fold; Aqueous solubility (Aqueous solubility; pH = 2.0): 283 µg/mL; Aqueous solubility (Aqueous solubility; pH = 7.4): 27.6 µg/mL; Fold more effective than ETR, K103N [7]: 2.4 fold and ~2.39 fold; Fold more effective than ETR, RES056 [8]: 5.3 fold
